These compounds were tested on Influenza B virus (assay: Antiviral activity against Influenza virus […] B/Panama/45/1990 infected in MDCK cells at 0.001 MOI assessed as inhibition of virus cytopathic effect measured after 48 hrs by crystal violet staining based assay). Details: B/Panama/45/1990, MDCK.
Format: functional, organism-based

Point of comparison: COc1cc(/C=C/C(=O)CC(=O)/C=C/c2ccc(O)c(OC)c2)ccc1O [CURCUMIN], EC50 0.47 µM. Against it:
- O=C(O[C@@H]1Cc2c(O)cc(O)cc2O[C@@H]1c1cc(O)c(O)c(O)c1)c1cc(O)c(O)c(O)c1 [EPIGALOCATECHIN GALLATE] — 12-fold higher, 5.7 µM
- O=C(O[C@@H]1Cc2c(O)cc(O)cc2O[C@@H]1c1ccc(O)c(O)c1)c1cc(O)c(O)c(O)c1 [EPICATECHIN GALLATE] — 47-fold higher, 22 µM
